Measured values published in patent EP2062893A1, “Fused imidazoles for cancer treatment” (Bayer Schering Pharma AG, priority 2007, dated 2009).

Experiments:
Assay type in all cases: cell-based
[1] = tested on: phosphorylated Akt protein; experiment: Cellular PI3K / Akt pathway assay (phospho-Akt Ser473 sandwich ELISA); conditions: Homo sapiens; MCF7 cells, ß-Heregulin (20ng/ml) stimulation, 48h incubation
Experimental: In order to study the cellular activity of the compounds according to the present invention, an Enzyme Linked Immunosorbent Assay (ELISA)-based assay has been used specific phospho-AKT. The assay is based on a Sandwich ELISA kit (PathScan™ Phospho-Akt1 (Ser473); Cell Signaling, USA; #7160). The ELISA Kit detects endogenous levels of phosphorylated Akt protein. A phospho-Akt (Ser473) antibody (Cell Signaling, USA; #9271) has been coated onto the microwells. After incubation with cell lysates, the coated antibody captures the phosphorylated Akt protein. Following extensive washing, Akt1 monoclonal antibody (Cell Signaling, USA; #2967) is added to detect the captured phospho-Akt1 protein. HRP-linked anti-mouse antibody (HRP: horseradish peroxidase; Cell Signaling, USA; #7076) is then used to recognize the bound detection antibody. HRP substrate (= 3,3',5,5'-tetramethylbenzidine (TMB); Cell Signaling, USA; #7160) is added to develop colour. The magnitude of optical density for this developed color is proportional to the quantity of phosphorylated Akt protein. MCF7 cells (ATCC HTB-22) are seeded into 96 well fate bottom plates at a density of 10000 cells/well. 24 hours after seeding, the cells are serum starved using low-serum medium (IMEM media including 0,1% charcoal treated FCS (FCS: fetal calf serum)). […] To stimulate Akt phosphorylation, ß-Heregulin (20ng/ml ß-HRG) is added in parallel to the compounds. Wells containing unstimulated control cells (no ß-Heregulin stimulation) are incubated with or without the diluted compound. Wells containing untreated control cells (no compound) are filled with medium containing 0.5% v:v DMSO and are or are not stimulated with ß-Heregulin. Cells are harvested and lysed with brief sonification in 1x cell lysis buffer (20mM Tris (pH7.5), 150 mM NaCl, 1 mM ethylene diaminetetraacetate (EDTA), 1 mM ethylene glycolbis(2-aminoethyl)-N,N,N',N'-tetraacetic acid (EGTA), 1vol% Triton X-100, 2.5mM sodium pyrophosphate, 1 mM β-glycerolphosphate, 1 mM Na3VO4, 1µg/ml leupeptin). The lysate is centrifuged for 10 min. at 4°C and the supernatant is transferred to a new tube. 100 µl of sample diluent (0.1vol% Tween-20, 0.1vol% sodium azide in phosphate buffered saline (PBS)) are added to a microcentrifuge tube and 100 µl of cell lysate are transferred into the tube and vortexed. 100 µl of each diluted cell lysate are added to the appropriate ELISA well, and incubated overnight at 4°C. The plates are washed 4 times with 1x wash buffer (1vol% tween-20, 0.33vol% thymol, in PBS). Next 100 µl of detection antibody (Akt1 (2H10) monoclonal detection antibody; Cell Signaling, USA; #2967) are added to each well and incubation continued for 1h at 37°C. The washing procedure is repeated between each step. 100µl of secondary antibody (anti-mouse IgG HRP-linked antibody; Cell Signaling, USA; #7076) are added to each well and incubated for 30 min. at 37°C. Than, 100µl of TMB substrate (0.05% 3,3',5,5' tetramethylbenzidine, 0.1 % hydrogen peroxide, complex polypeptides in a buffered solution; Cell Signaling, USA; #7160) are added to each well and incubated for 30 min. at 25°C. Finally 100 µl of STOP solution (0.05vol% α and β unsaturated carbonyl compound) are added to each well and the plate are shaked gently. The absorbance is measured at λ =450 nm (Wallac Victor2; Perkin Elmer, USA) within 30 min. after adding the STOP solution. The analysis of the data is performed using a statistical program (Excel; Microsoft, USA). Preferred compounds show an inhibitory activity towards Akt phosphorylation below 10µM.

[2] = tested on: phosphorylated GSK3; experiment: Cellular pGSK3 assay (phospho-GSK3 Ser9 sandwich ELISA); conditions: Homo sapiens; MCF7 cells, 48h incubation, IC50 of pGSK3 inhibition
Experimental: In order to study the cellular activity of the compounds according to the present invention, an ELISA-based assay has been established for the phosphorylated protein glycogen synthetase kinase 3 (GSK3). The assay is based on a solid phase sandwich ELISA that detects endogenous levels of phosphorylated GSK3 using a phospho-GSK3 (Ser9) specific antibody (BioSource International, Inc.; Catalog #KHO0461). After incubation with cell lysates, the coated antibody captures the phosphorylated GSK3 protein. Following extensive washing, GSK3 polyclonal antibody is added to detect the captured phospho-GSK3 protein. Secondary antibody (anti-rabbit IgG-HRP) is then used to recognize the bound detection antibody. After the second incubation and washing to remove all the excess anti-rabbit IgG-HRP, a substrate solution is added, which is acted upon by the bound enzyme to produce color. The intensity of this colored product is directly proportional to the concentration of GSK-3β [pS9] present in the original specimen. MCF7 cells (ATCC HTB-22) were seeded into 96 well fate bottom plates at a density of 10000 cells/well. After 24 h 1 µl each of the compound dilutions (test compounds were dissolved as 10 mM solutions in dimethylsulfoxide (DMSO) and subsequently diluted) were added into each well of the 96 well plates and incubated for 48h at 37°C in a humidified athmosphere containing 5% CO2. Cells were harvested and lysed in cell extraction buffer (10 mM Tris, pH 7.4, 100 mM NaCl, 1 mM EDTA, 1 mM EGTA, 1 mM NaF, 20 mM Na4P2O7, 2 mM Na3VO4, 1% Triton X-100, 10vol% glycerol, 0.1vol% SDS, 0.5vol% deoxycholate, 1 mM phenylmethylsulfonylfluorid (PMSF)). The lysate were centrifuged for 10 min. at 4°C and the supernatant were transferred to a new tube. 50 µl of sample diluent (standard diluent buffer, Biosource) were added and 100 µl of cell lysate transferred into the tube and vortexed. 100 µl of each diluted cell lysate were added to the appropriate ELISA well plate and incubated for 3h at room temperature. The plates were washed 4 times with 1x wash buffer (Biosource). 50 µl of detection antibody (GSK3 (Ser9) detection antibody; BioSource) were added to each well and incubated for 30 min. at room temperature. The washing procedure was repeated between each step. 100µl of HRP-linked secondary antibody (anti-mouse IgG HRP-linked antibody) were added to each well and incubated for 30 min. at room temperature. 100µl of TMB substrate (0.05vol% 3,3',5,5' tetramethylbenzidine, 0.1vol% hydrogen peroxide, complex polypeptides in a buffered solution; Biosource) were added to each well and incubated for 30 min. at room temperature. Finally 100 µl of Stop solution (0.05vol% α and β unsaturated carbonyl compound) were added to each well and the plate were shaked gently for a few seconds. The absorbance was measured at λ = 450 nm (Wallac Victor2; Perkin Elmer, USA) within 30 min. after adding the stop solution. The analysis of the data was performed using a statistical program (Excel; Microsoft, USA) and the IC50 of pGSK3 inhibition was determined.

[3] = tested on: OvCAR3 cells; experiment: Cellular proliferation / Cytotoxicity assay (Alamar Blue / Resazurin cell viability); conditions: Homo sapiens, OVCAR-3, 48h incubation, read-out: Anti-proliferative / Cytotoxic activity (OvCAR3 cells)
Experimental: Wells containing untreated control cells were filled with 200 µl DMEM (Dulbecco's Modified Eagle Medium) containing 0.5vol% v:v DMSO. The cells are then incubated with the substances for 48h at 37°C in a humidified atmosphere containing 5vol% CO2. To determine the viability of the cells, 20 µl of a Resazurin solution (90mg / I) are added. […] Viabilities are expressed as % values.

| Compound | IC50 [1] | IC50 [2] | IC50 [3] |
| --- | --- | --- | --- |
| Ic1cnc2nc(-c3ccc(CN4CCC(c5n[nH]c(-c6ccccn6)n5)CC4)cc3)c(-c3ccccc3)n2c1 [Example 23, 6-iodo-3-phenyl-2-(4-{[4-(5-pyridin-2-yl-1,2,4-triazol-3-yl)piperidin-1-yl]methyl}phenyl)imidazo[1,2-a]pyrimidine] | < 1000 nM | 1000 to 10000 nM | < 10000 nM |
| Fc1cccc(-c2c(-c3ccc(CN4CCC(c5n[nH]c(-c6ccccn6)n5)CC4)cc3)nc3ccccn23)c1 [Example 14, 3-(3-fluorophenyl)-2-(4-{[4-(5-pyridin-2-yl-1,2,4-triazol-3-yl)piperidin-1-yl]methyl}phenyl)imidazo[1,2-a]pyridine] | < 1000 nM | 1000 to 10000 nM | < 10000 nM |
| COc1cccn2c(-c3ccccc3)c(-c3ccc(CN4CCC(c5n[nH]c(-c6ccccn6)n5)CC4)cc3)nc12 [Example 13, 8-methoxy-3-phenyl-2-(4-{[4-(5-pyridin-2-yl-1,2,4-triazol-3-yl)piperidin-1-yl]methyl}phenyl)imidazo[1,2-a]pyridine] | < 1000 nM | 1000 to 10000 nM | < 10000 nM |
| N=C(N)c1cccn2c(-c3ccccc3)c(-c3ccc(CN4CCC(c5n[nH]c(-c6ccccn6)n5)CC4)cc3)nc12 [Example 33, 3-phenyl-2-(4-{[4-(5-pyridin-2-yl-1,2,4-triazol-3-yl)piperidin-1-yl]methyl}phenyl)imidazo[1,2-a]pyridine-8-carboximidamide] | 1000 to 10000 nM | > 10000 nM | > 10000 nM |
| COc1ccn2c(-c3ccccc3)c(-c3ccc(CN4CCC(c5n[nH]c(-c6ccccn6)n5)CC4)cc3)nc2n1 [Example 24, 7-methoxy-3-phenyl-2-(4-{[4-(5-pyridin-2-yl-1,2,4-triazol-3-yl)piperidin-1-yl]methyl}phenyl)imidazo[1,2-a]pyrimidine] | < 1000 nM | < 1000 nM | < 10000 nM |
| c1ccc(-c2c(-c3ccc(CN4CCC(c5n[nH]c(-c6ccccn6)n5)CC4)cc3)nc3sccn23)cc1 [Example 10, 5-phenyl-6-(4-{[4-(5-pyridin-2-yl-1,2,4-triazol-3-yl)piperidin-1-yl]methyl}phenyl)imidazo[2,1-b][1,3]thiazole] | < 1000 nM | < 1000 nM | < 10000 nM |
| Fc1ccc(-c2c(-c3ccc(CN4CCC(c5n[nH]c(-c6ccccn6)n5)CC4)cc3)nc3ncccn23)cc1 [Example 18, 3-(4-fluorophenyl)-2-(4-{[4-(5-pyridin-2-yl-1,2,4-triazol-3-yl)piperidin-1-yl]methyl}phenyl)imidazo[1,2-a]pyrimidine] | 1000 to 10000 nM | 1000 to 10000 nM | < 10000 nM |
| Clc1ccc2nc(-c3ccc(CN4CCC(c5nnc(-c6ccccn6)[nH]5)CC4)cc3)c(-c3ccccc3)n2c1 [Example 7, 6-chloro-3-phenyl-2-(4-{[4-(5-pyridin-2-yl-4H-1,2,4-triazol-3-yl)piperidin-1-yl]methyl}phenyl)imidazo[1,2-a]pyridine] | < 1000 nM | 1000 to 10000 nM | < 10000 nM |
| Brc1cnc2nc(-c3ccc(CN4CCC(c5n[nH]c(-c6ccccn6)n5)CC4)cc3)c(-c3ccccc3)n2c1 [Example 12, 6-bromo-3-phenyl-2-(4-{[4-(5-pyridin-2-yl-1,2,4-triazol-3-yl)piperidin-1-yl]methyl}phenyl)imidazo[1,2-a]pyrimidine] | < 1000 nM | < 1000 nM | < 10000 nM |
| c1ccc(-c2c(-c3ccc(CN4CCC(c5n[nH]c(-c6ccccn6)n5)CC4)cc3)nc3ccccn23)cc1 [Example 2, 3-phenyl-2-(4-{[4-(5-pyridin-2-yl-1H-1,2,4-triazol-3-yl)piperidin-1-yl]methyl}phenyl)imidazo[1,2-a]pyridine] | < 1000 nM | 1000 to 10000 nM | < 10000 nM |
| Cc1ccn2c(-c3ccccc3)c(-c3ccc(CN4CCC(c5n[nH]c(-c6ccccn6)n5)CC4)cc3)nc2n1 [Example 19, 7-methyl-3-phenyl-2-(4-{[4-(5-pyridin-2-yl-1,2,4-triazol-3-yl)piperidin-1-yl]methyl}phenyl)imidazo[1,2-a]pyrimidine] | < 1000 nM | < 1000 nM | < 10000 nM |
